From article PMC6934184, “Selective DNA-PKcs inhibition extends the therapeutic index of localized radiotherapy and chemotherapy” (The Journal of Clinical Investigation, 2019)

Biological target: T1, PKN1 (PRK1) (Homo sapiens, UniProt Q16512)
T1 construct: purchased Thermo Fisher Scientific (Life Technologies) SelectScreen
Assay: SelectScreen Z'LYTE
Type: biochemical
Procedure, shortened: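 SelectScreen broad panel; activity (Z'LYTE, Adapta) plus binding formats. ATP: Km app for CSF1R Z'LYTE; 10 for CAMK1 Adapta. Readout = % per kinase.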

T1 sequence (Q16512 whole entry): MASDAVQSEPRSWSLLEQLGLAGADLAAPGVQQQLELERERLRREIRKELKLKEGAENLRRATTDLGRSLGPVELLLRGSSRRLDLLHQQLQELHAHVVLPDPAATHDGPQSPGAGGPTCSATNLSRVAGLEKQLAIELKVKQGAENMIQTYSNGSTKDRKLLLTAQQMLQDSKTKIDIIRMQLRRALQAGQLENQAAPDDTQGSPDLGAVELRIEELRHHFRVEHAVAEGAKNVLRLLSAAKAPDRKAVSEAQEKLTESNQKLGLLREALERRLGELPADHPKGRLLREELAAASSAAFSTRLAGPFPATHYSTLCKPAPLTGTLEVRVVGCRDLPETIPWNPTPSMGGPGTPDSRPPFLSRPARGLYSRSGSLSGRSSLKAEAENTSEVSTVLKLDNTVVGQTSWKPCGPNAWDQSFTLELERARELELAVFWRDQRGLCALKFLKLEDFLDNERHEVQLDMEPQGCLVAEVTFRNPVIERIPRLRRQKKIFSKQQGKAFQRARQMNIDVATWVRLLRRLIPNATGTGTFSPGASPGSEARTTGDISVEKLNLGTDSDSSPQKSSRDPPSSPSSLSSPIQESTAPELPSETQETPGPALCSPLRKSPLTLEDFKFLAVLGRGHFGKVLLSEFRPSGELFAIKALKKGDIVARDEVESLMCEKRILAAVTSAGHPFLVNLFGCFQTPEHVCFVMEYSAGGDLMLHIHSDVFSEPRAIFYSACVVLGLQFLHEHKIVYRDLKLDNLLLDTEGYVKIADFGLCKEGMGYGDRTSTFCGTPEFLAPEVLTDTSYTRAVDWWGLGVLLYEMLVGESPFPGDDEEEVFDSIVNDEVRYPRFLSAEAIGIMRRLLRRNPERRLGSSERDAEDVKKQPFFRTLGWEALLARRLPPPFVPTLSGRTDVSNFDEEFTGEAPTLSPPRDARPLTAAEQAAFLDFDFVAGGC

Work on `CN(C(=O)CN1CCOCC1)c1ccc2sc3c(-c4cccc5c(=O)cc(N6CC7CCC(C6)O7)oc45)cccc3c2c1` [NU5455] yielded an inhibition at 1 µM of 3.6%.
